Values of other authors as cited in patent publication US20200108015A1, “Sustained Release Nitric Oxide in Intestinal Tract” (SKLAR PHARMA LLC, priority 2018, published 2020).
Where two headings read alike, the source gives them in different places.

Compound	half life (in the blood stream)	half life (in vivo)
CC(=O)Oc1ccccc1C(=O)O [aspirin]	about 30 minutes	
NC(=O)NO [Hydroxyurea, hydroxyurea]		two
